# Measured values published in patent US10301308B2, “Azetidine derivatives for tau imaging” (Eli Lilly and Company, priority 2015, dated 2019).
# Experiment: Biodistribution in normal mice (dissection, gamma counting)
# Assay type: in vivo
# Description: While under anesthesia, 0.2 mL of saline solution containing 20 μCi of 3-(3-[18F]-fluoroazetidin-1-yl)-8-methylbenzo[4,5]imidazo[1,2-a]pyridine is injected directly into the tail vein. Three mice are used per time point and sacrificed in a staggered manner. The following organs and fluids are collected: Blood, Spleen, Thyroid, Testes, Heart, Liver, Pancreas, Kidneys, Muscle, Skin, Stomach, Bone, Lungs, Brain, Intestines, Urogenital system. The organs are weighted and the radioactivity of each organ is counted in an Automatic Gamma Counter (Perkin Elmer). For the skin, bone, muscle and blood, a sample is counted and the total weight of the organ or fluid is estimated. A sample of the injected dose is counted as reference. The Percentage Injected Dose per Gram of tissue (% ID/g) is calculated for each organ.
compound,measurement,setting,value
"Cc1ccc2nc3cc(N4CC([18F])C4)ccn3c2c1 [Compound 8, 3-(3-[18F]-fluoroazetidin-1-yl)-8-methylbenzo[4,5]imidazo[1,2-a]pyridine]",% dose/g Body leftover,"60 minutes, AVG",0.54 % dose/g
same,% dose/g Bone,"60 minutes, AVG",0.97 % dose/g
same,% dose/g Brain,"60 minutes, AVG",0.26 % dose/g
same,% dose/g Fat,"60 minutes, AVG",0.27 % dose/g
same,% dose/g Heart,"60 minutes, AVG",0.49 % dose/g
same,% dose/g Intestine,"60 minutes, AVG",15.40 % dose/g
same,% dose/g Kidney,"60 minutes, AVG",4.32 % dose/g
same,% dose/g Liver,"60 minutes, AVG",3.10 % dose/g
same,% dose/g Lung,"60 minutes, AVG",4.01 % dose/g
same,% dose/g Muscle,"60 minutes, AVG",0.31 % dose/g
same,% dose/g Pancreas,"60 minutes, AVG",0.60 % dose/g
same,% dose/g Skin,"60 minutes, AVG",0.36 % dose/g
same,% dose/g Spleen,"60 minutes, AVG",1.15 % dose/g
same,% dose/g Stomach,"60 minutes, AVG",2.78 % dose/g
same,% dose/g Tail,"60 minutes, AVG",2.10 % dose/g
same,% dose/g Testes,"60 minutes, AVG",0.88 % dose/g
same,% dose/g Thyroid,"60 minutes, AVG",0.68 % dose/g
same,% dose/g Urogenital,"60 minutes, AVG",13.95 % dose/g
same,% dose/organ Blood,"60 minutes, AVG",1.63 % dose/organ
same,% dose/organ Body leftover,"60 minutes, AVG",8.64 % dose/organ
same,% dose/organ Bone,"60 minutes, AVG",3.62 % dose/organ
same,% dose/organ Brain,"60 minutes, AVG",0.09 % dose/organ
same,% dose/organ Fat,"60 minutes, AVG",0.12 % dose/organ
same,% dose/organ Heart,"60 minutes, AVG",0.08 % dose/organ
same,% dose/organ Intestine,"60 minutes, AVG",32.10 % dose/organ
same,% dose/organ Kidney,"60 minutes, AVG",1.73 % dose/organ
same,% dose/organ Liver,"60 minutes, AVG",4.73 % dose/organ
same,% dose/organ Lung,"60 minutes, AVG",0.74 % dose/organ
same,% dose/organ Muscle,"60 minutes, AVG",3.30 % dose/organ
same,% dose/organ Pancreas,"60 minutes, AVG",0.13 % dose/organ
same,% dose/organ Skin,"60 minutes, AVG",1.44 % dose/organ
same,% dose/organ Spleen,"60 minutes, AVG",0.12 % dose/organ
same,% dose/organ Stomach,"60 minutes, AVG",3.25 % dose/organ
same,% dose/organ Tail,"60 minutes, AVG",1.35 % dose/organ
same,% dose/organ Testes,"60 minutes, AVG",0.20 % dose/organ
same,% dose/organ Thyroid,"60 minutes, AVG",0.11 % dose/organ
same,% dose/organ Urogenital,"60 minutes, AVG",3.23 % dose/organ
same,% dose/g Blood,"120 minutes, AVG",0.50 % dose/g
same,% dose/g Body leftover,"120 minutes, AVG",0.29 % dose/g
same,% dose/g Bone,"120 minutes, AVG",0.72 % dose/g
same,% dose/g Brain,"120 minutes, AVG",0.23 % dose/g
same,% dose/g Fat,"120 minutes, AVG",0.11 % dose/g
same,% dose/g Heart,"120 minutes, AVG",0.27 % dose/g
same,% dose/g Intestine,"120 minutes, AVG",11.88 % dose/g
same,% dose/g Kidney,"120 minutes, AVG",1.19 % dose/g
same,% dose/g Liver,"120 minutes, AVG",1.35 % dose/g
same,% dose/g Lung,"120 minutes, AVG",2.02 % dose/g
same,% dose/g Muscle,"120 minutes, AVG",0.25 % dose/g
same,% dose/g Pancreas,"120 minutes, AVG",0.23 % dose/g
same,% dose/g Skin,"120 minutes, AVG",0.39 % dose/g
same,% dose/g Spleen,"120 minutes, AVG",0.57 % dose/g
same,% dose/g Stomach,"120 minutes, AVG",0.81 % dose/g
same,% dose/g Tail,"120 minutes, AVG",0.84 % dose/g
same,% dose/g Testes,"120 minutes, AVG",0.31 % dose/g
same,% dose/g Thyroid,"120 minutes, AVG",0.60 % dose/g
same,% dose/g Urogenital,"120 minutes, AVG",30.39 % dose/g
same,% dose/organ Blood,"120 minutes, AVG",0.89 % dose/organ
same,% dose/organ Body leftover,"120 minutes, AVG",4.42 % dose/organ
same,% dose/organ Bone,"120 minutes, AVG",2.50 % dose/organ
same,% dose/organ Brain,"120 minutes, AVG",0.11 % dose/organ
same,% dose/organ Fat,"120 minutes, AVG",0.03 % dose/organ
same,% dose/organ Heart,"120 minutes, AVG",0.04 % dose/organ
same,% dose/organ Intestine,"120 minutes, AVG",32.80 % dose/organ
same,% dose/organ Kidney,"120 minutes, AVG",0.44 % dose/organ
same,% dose/organ Liver,"120 minutes, AVG",1.86 % dose/organ
same,% dose/organ Lung,"120 minutes, AVG",0.37 % dose/organ
same,% dose/organ Muscle,"120 minutes, AVG",2.51 % dose/organ
same,% dose/organ Pancreas,"120 minutes, AVG",0.03 % dose/organ
same,% dose/organ Skin,"120 minutes, AVG",1.46 % dose/organ
same,% dose/organ Spleen,"120 minutes, AVG",0.05 % dose/organ
same,% dose/organ Stomach,"120 minutes, AVG",0.45 % dose/organ
same,% dose/organ Tail,"120 minutes, AVG",0.61 % dose/organ
same,% dose/organ Testes,"120 minutes, AVG",0.05 % dose/organ
same,% dose/organ Thyroid,"120 minutes, AVG",0.06 % dose/organ
same,% dose/organ Urogenital,"120 minutes, AVG",6.52 % dose/organ
same,"clearance from the brain, remaining level",before the 30 min point,less than 10 % of the peak
same,de-fluorination (radioactivity in bone tissue),first two hours,do not undergo de-fluorination
same,uptake by the muscle,over the study period,under 2 % ID/g
